From ChEMBL document CHEMBL4028877, “Targets for Drug Therapy for Autism Spectrum Disorder: Challenges and Future Directions” (J Med Chem, 2017)

What was measured:
[1] = target: Glutamate receptor ionotropic, NMDA 2A (Rattus norvegicus) (UniProt Q00959); assay: Antagonist activity at GluN2A in rat primary pyramidal neurons assessed as inhibition of NMDA/glycine-induced current amplitude at 10 uM at holding potential of -70 mV by patch-clamp electrophysiology assay
[2] = target: Glutamate receptor ionotropic, NMDA 2A (Rattus norvegicus) (UniProt Q00959); assay: Antagonist activity at GluN2A in CA1 region of Sprague-Dawley rat hippocampal slices assessed as inhibition of schaffer collateral input-stimulated field excitatory postsynaptic potential at 30 to 50 uM after 40 mins by electrophysiology assay
Oxytocin receptor [3] = target: T1, Oxytocin receptor (Mus musculus, UniProt P97926); assay: Displacement of [Tyrosyl-2,6-3H]Oxytocin from recombinant mouse OTR expressed in CHO-K1 cells after 180 mins by liquid scintillation counting method; assay type: cell-based
T1 sequence (P97926 whole entry): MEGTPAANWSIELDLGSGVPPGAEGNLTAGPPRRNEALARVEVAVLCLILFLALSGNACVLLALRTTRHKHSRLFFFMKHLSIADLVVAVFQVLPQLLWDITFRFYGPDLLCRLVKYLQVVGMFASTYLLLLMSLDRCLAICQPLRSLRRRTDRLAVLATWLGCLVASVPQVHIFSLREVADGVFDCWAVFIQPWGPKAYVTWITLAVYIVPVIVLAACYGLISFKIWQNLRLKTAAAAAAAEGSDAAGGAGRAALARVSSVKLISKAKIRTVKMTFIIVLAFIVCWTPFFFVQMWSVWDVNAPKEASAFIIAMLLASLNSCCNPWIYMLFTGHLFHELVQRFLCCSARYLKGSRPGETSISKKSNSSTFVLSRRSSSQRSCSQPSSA

Oxytocin receptor [4] = target: T1, Oxytocin receptor; assay: Agonist activity at recombinant mouse OTR expressed in CHO-K1 cells assessed as induction of Ca2+ mobilization after overnight incubation by FLIPR assay; assay type: functional, cell-based

Sequence of Glutamate receptor ionotropic, NMDA 2A (Rattus norvegicus) (Q00959 23-1464 limits assumed): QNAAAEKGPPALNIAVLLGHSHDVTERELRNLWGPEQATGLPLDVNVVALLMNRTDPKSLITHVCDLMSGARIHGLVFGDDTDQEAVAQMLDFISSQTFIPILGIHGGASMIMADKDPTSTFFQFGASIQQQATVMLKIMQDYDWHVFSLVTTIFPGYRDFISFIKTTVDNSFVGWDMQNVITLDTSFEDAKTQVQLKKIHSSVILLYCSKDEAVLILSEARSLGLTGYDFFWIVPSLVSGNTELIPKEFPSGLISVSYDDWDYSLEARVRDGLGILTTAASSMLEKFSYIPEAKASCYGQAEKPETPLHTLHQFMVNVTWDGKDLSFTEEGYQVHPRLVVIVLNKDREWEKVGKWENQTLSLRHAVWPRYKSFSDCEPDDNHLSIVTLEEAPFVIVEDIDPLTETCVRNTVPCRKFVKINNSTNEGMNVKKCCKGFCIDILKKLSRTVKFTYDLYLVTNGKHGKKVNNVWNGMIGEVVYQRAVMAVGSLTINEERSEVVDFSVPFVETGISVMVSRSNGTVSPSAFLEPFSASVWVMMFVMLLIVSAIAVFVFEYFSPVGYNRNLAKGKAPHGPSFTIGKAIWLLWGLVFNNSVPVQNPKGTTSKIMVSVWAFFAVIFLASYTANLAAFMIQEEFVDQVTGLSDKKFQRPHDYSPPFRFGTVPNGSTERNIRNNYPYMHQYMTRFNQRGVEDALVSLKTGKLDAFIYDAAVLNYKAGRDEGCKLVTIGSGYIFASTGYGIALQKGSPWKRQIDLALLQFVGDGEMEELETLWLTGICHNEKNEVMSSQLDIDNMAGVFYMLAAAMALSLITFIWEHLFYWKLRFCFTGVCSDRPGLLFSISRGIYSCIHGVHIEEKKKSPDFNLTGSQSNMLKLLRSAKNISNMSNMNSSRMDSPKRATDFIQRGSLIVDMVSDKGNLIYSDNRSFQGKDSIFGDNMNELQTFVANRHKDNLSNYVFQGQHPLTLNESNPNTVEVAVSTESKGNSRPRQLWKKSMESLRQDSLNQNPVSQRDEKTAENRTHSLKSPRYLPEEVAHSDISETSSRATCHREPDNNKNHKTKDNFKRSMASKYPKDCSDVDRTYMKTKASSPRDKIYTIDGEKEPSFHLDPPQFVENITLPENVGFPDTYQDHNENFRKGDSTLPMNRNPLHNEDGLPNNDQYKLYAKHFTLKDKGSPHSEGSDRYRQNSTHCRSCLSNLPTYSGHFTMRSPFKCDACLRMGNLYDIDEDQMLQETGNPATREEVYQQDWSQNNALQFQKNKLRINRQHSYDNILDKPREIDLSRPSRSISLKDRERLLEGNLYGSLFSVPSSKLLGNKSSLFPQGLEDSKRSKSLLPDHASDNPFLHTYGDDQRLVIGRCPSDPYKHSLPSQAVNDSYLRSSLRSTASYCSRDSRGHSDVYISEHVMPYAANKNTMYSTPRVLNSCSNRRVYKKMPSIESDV

Row | SMILES | inhibition [1] | inhibition [2] | Ki (Oxytocin receptor [3]) | EC50 (Oxytocin receptor [4])
1 | Cc1ncc(CNC(=O)c2cnc(CNS(=O)(=O)c3ccc(F)c(Cl)c3)cn2)s1 | 30% | 60% |  | 
2 | Cc1ncc(CNC(=O)c2cnc(CNS(=O)(=O)c3ccc(F)c(F)c3)c(C)n2)s1 | 30% | 60% |  | 
3 | Cc1cc(C(=O)N2Cc3cnn(C)c3Nc3ccccc32)ccc1CNC(=O)N1CCN(Cc2cc(O)cc(O)c2)CC1 |  |  | 51.6 nM | 29 nM
